The subject of one assay is interleukin-8 (IL8). Nature of the assay: Retinol-induced interleukin-8 release from reconstituted epidermis (ELISA on culture medium). Format: cell-based, human. Conditions: for % reduction of IL8 release Control + retinol: measured after 48 hours and 96 hours (time not given). The protocol:
Samples of reconstituted epidermis were topically applied with gel/emulsions containing retinol (0.075 wt. %) and a series of test ingredients. The release of interleukin-8 (IL8) was measured in the culture medium after 48 hours by an ELISA method. No significant loss of viability was evidenced. No release of interleukin-1 (IL1) was observed.
Samples of reconstituted epidermis were topically applied with gel/emulsions containing retinol (0.075 wt. %) and one of the following test ingredients: Dragocalm® (at 1.5 wt. % and 3.5 wt. %), dipotassium glycyrrhenzinate (at 0.5 wt. %), Rona Care® ectoine (at 0.1 wt. %, 0.25 wt. %), and a willow herb (0.1 wt. %)/oat straw (0.1 wt. %) extract combination. The release of IL8 was measured in each culture medium after 48 hours and 96 hours by an ELISA method. No significant loss of viability was evidenced. No release of IL1 was observed.
(In general: An ELISA detects its analyte on a solid surface through an enzyme-linked reagent.)

The test system of assay [1] is retinol induced skin redness. Nature of the assay: Repeated patch test on backs of human volunteers, cumulated redness score. Format: in vivo. The following applies: for inhibition of retinol-induced redness (in words): concentration not given, retinol 0.1 wt. %, human volunteers; for Score (cumulated redness score): 48 hours patches, three times a week during three weeks. On the procedure: Based on the foregoing results, Dragocalm®, ectoine, and dipotassium glycyrrhenzinate were tested further on human volunteers for their potential to reduce retinol induced skin redness. Patches containing formulas comprising either retinol (0.1 wt. %) or retinol (0.1 wt. %) plus the test ingredient Dragocalm®, ectoine, or dipotassium glycyrrhenzinate were applied during 48 hours to the backs of volunteers three times a week during three weeks. Redness induced by the patches was examined and scored after each patch removal. Every individual score for each product were cumulated to give the final scores.

Setting [2] is: retinol 0.1 wt. % + test ingredient 0.25 wt. %.
[3] abbreviates: retinol 0.1 wt. % + test ingredient 0.5 wt. %.

Consider `CC1=NC(C(=O)O)CCN1` (centres unmarked) [Rona Care ® Ectoin, 1,4,5,6-tetrahydro-2-methyl-4-pyrimidine carboxylic acid], for which, in the assay on interleukin-8 (IL8) (Example 1, 1 wt. %, retinol 0.075 wt. %, 48 hours), the “decrease of retinol induced IL8 release” value is 55%. In the assay with interleukin-8 (IL8) (Example 1, test ingredient 1 wt. % in gel/emulsion with retinol 0.075 wt. %, 48 hours), the “% Reduction of Interleukin-8 compared with Control + Retinol” value (shortened to “% Reduction … with Control + Retinol”) is −55%. In addition, the “activity on IL8 release (in words)” value with interleukin-8 (IL8) (Example 2, 0.1 wt. %, retinol 0.075 wt. %) is on record as “no activity”. Moreover, the “reduction (inhibition) of IL8 release” value with interleukin-8 (IL8) (Example 2, 0.25 wt. %, retinol 0.075 wt. %) is 60%. Also, in the assay with interleukin-8 (IL8) (Example 2, test ingredient 0.1 wt. %, retinol 0.075 wt. %), the “% reduction of IL8 release Control + retinol” value is −31%. Further, the “% reduction of IL8 release Control + retinol” value with interleukin-8 (IL8) (Example 2, test ingredient 0.25 wt. %, retinol 0.075 wt. %) was −60%. For the same molecule, in assay [1], the “inhibition of retinol-induced redness (in words)” value is on record as “reduced redness but to a lesser extent”. Besides, in assay [1] (setting [2]), the “% reduction (of redness score vs Control + Retinol 0.1 wt. %)” value was −56% and the “Score (cumulated redness score)” value was 9.5.
For the molecule “Dipotassium Glycirrhezinate [reference compound]”, the “% Reduction … with Control + Retinol” value with interleukin-8 (IL8) (Example 1, test ingredient 0.2 wt. % in gel/emulsion with retinol 0.075 wt. %, 48 hours) is −29%. Also, in the assay on interleukin-8 (IL8) (Example 2, 0.5 wt. %, retinol 0.075 wt. %), the “reduction (inhibition) of IL8 release” value is reported as 63%. Moreover, the “% reduction of IL8 release Control + retinol” value in the assay on interleukin-8 (IL8) (Example 2, test ingredient 0.5 wt. %, retinol 0.075 wt. %) is on record as −63%. In addition, the “inhibition of retinol-induced redness (in words)” value in assay [1] is given as “not effective”. Besides, in assay [1] (setting [3]), the “% reduction (of redness score vs Control + Retinol 0.1 wt. %)” value was −21% and the “Score (cumulated redness score)” value is reported as 17.
On to `CC(C)=CCC[C@](C)(O)[C@@H]1CC=C(C)CC1` [Alpha Bisabolol, reference compound], for which the “% Reduction … with Control + Retinol” value with interleukin-8 (IL8) (Example 1, test ingredient 0.05 wt. % in gel/emulsion with retinol 0.075 wt. %, 48 hours) is given as −4%.
As to `CCCCCCCCCCCCCCCCCCOC(=O)[C@@]1(C)CC[C@]2(C)CC[C@]3(C)C(=CC(=O)[C@@H]4[C@@]5(C)CC[C@H](O)C(C)(C)[C@@H]5CC[C@]43C)[C@@H]2C1` [Stearyl Glycirrhezinate, reference compound], in the assay with interleukin-8 (IL8) (Example 1, test ingredient 0.1 wt. % in gel/emulsion with retinol 0.075 wt. %, 48 hours), the “% Reduction … with Control + Retinol” value is on record as 26%.

For the origin of these results see patent publication US20080200477A1, “Retinoid-Containing Compositions Having Reduced Irritation Effect” (priority 2004, published 2008).
